Values quoted from earlier work, collected in patent US20250143325A1, “PLANT-BASED INSECT REPELLENT AND USES THEREOF” (PIC Corporation, priority 2023, published 2025).

Assays:
[1] = tested on: storage food mite, Tyrophagus putrescentiae; settings: impregnated fabric disc bioassay against Tyrophagus putrescentiae
[2] = tested on: Periplaneta americana (the American Cockroach) and Blaberus discoidalis (discoids)

Row | SMILES | 50% lethal dose value [1] [g/mL] | concentration abolishing spontaneous foregut contractions (together with response to electrical stimulation) ([2]; foregut) [mM] | threshold for increased spontaneous firing (abdominal nerve cord) ([2]; lower doses, impulses recorded extracellularly) [µM]
1 | CC(C)=CCC/C(C)=C/CO [geraniol] | 1.95 | 2 | 250
2 | O=C(OCc1ccccc1)c1ccccc1 [benzyl benzoate] | 1.27 | – | –
